Data as given in US8987192B2, “Potent and selective mediators of cholesterol efflux” (The Regents of the University of California, priority 2006, dated 2015).
“Also recorded” adds a separate entry of the source.

Assays:
ABCA1 [1] = molecular target: ABCA1 (Mus musculus, UniProt P41233); assay: ABCA1 protein stabilization in J774 macrophages (Western blot); format: cell-based; design: endogenous in cells; host or cells: J774 mouse macrophages; details: 6 hours serum-free medium, no cAMP
Protocol: In some embodiments, the stabilization of ABCA is measured by direct measurement of ABCA (e.g., ABCA protein, or nucleic acid) using a cell based assay. Cell based assays can be performed in any cells in which ABCA is expressed (e.g., J774 macrophages), including cells which have been transfected with ABCA (e.g. HeLa cells). Any cell type can be used. For example, J774 macrophages can be used to assess relative ABCA1 protein levels in the presence and absence of polypeptides of the invention. The cells are first contacted with a compound that will induce ABCA (e.g., cAMP or a cAMP analogue such as, 8-bromo-cAMP) to upregulate ABCA (e.g., ABCA1) expression, then exposed to […] polypeptides of the invention in the absence of the cAMP stimulus to evaluate whether ABCA1 protein was stabilized or degraded. Relative levels of ABCA1 protein can be assessed using any means known in the art including, e.g., immunoblot analysis of cell membranes (Oram et al., J. Biol. Chem., 278:52379-52385 (2003)) or hybridization of nucleic acid probes to ABCA mRNA.
To test whether the polypeptides of the present invention stabilize cellular ABCA1 protein concentrations, J774 mouse macrophages were treated with a cAMP analogue (24 h) to upregulate ABCA1 expression. […] ABCA1 protein in cell lysates was determined by Western blot analysis. […]

Interleukin-6 = assay: Serum Interleukin-6 in ApoE -/- mice (fluorescent bead immunoassay); format: in vivo, mouse
Description: Apolipoprotein E deficient (ApoE −/−) mice at 6 weeks old were given a Western diets for 18 weeks before commencing treatment. Once daily, intraperitoneal injections were given as saline or the polypeptide of SEQ ID NO:4 (n=6-7 per group). At termination, serum was collected and analyzed for Interleukin-6 concentration by a fluorescent bead immunoassay utilizing flow cytometry (BMS820FF). Mice treated with the polypeptide of SEQ ID NO:4 had about 68% lower serum levels of IL-6 (see, FIG. 22).

ABCA1 [2] = assay: Cholesterol efflux in the absence and presence of ABCA1 (mouse macrophages and HeLa cells transfected with ABCA1 cDNA); format: cell-based; details: 8 hours, saturating peptide >30-fold Km
Description: The large excess of polypeptide was provided to determine the extent (if any) of non-specific efflux, in the absence of ABCA1 induction.

LDLr knockout mice = assay: Atherosclerosis in LDLr knockout mice; format: in vivo, mouse; details: 30 mg/kg IP every day for 6 weeks on chow after 26 weeks western-diet
Protocol: Beginning at 6 weeks of age, LDLr knockout mice were fed a high-fat western-diet for 26 weeks. After the dietary challenge, mice were switched to standard chow for 6 weeks. During the 6 weeks on chow diet, mice were injected IP every day with either the polypeptide of SEQ ID NO:4 or a polypeptide of SEQ ID NO:4:POPC complexes at a dose of 30 mg/kg. Control mice received IP injections with PBS vehicle alone. The presence of plaque lesions in the whole aorta was then evaluated.

[3] = tested on: Apolipoprotein E deficient (Apo E −/−) mice; assay: Established atherosclerosis in Apo E -/- mice on high-fat diet (Example 18); format: in vivo, mouse; details: 10 mg/kg IP at 2-day intervals
Protocol: Male Apolipoprotein E deficient (Apo E −/−) mice (six-weeks of age) were fed a high-fat diet for 26 weeks. During the last 6 weeks on the high-fat diet, the mice received intraperitoneal (IP) injections of either saline or the polypeptide of SEQ ID NO:4 (10 mg/kg) at 2-day intervals. […] The effect of the polypeptide reducing established atherosclerosis was highly significant, as judged by the lipid-content of plaques in the aortic sinus (see, FIG. 18). This was accomplished using the lipid-free polypeptide of SEQ ID NO:4 composed of all L-amino acids administered in the continued presence of the dietary insult.

[4] = tested on: Apolipoprotein E deficient (ApoE −/−) mice; assay: In vivo cholesterol efflux and Reverse Cholesterol Transport from injected macrophage foam-cells; design: species or system mouse; details: 20 mg/kg IP
Protocol: Apolipoprotein E deficient (ApoE −/−) mice at 6 months of age were used to evaluate the ability of the polypeptide of SEQ ID NO:4 to stimulate cholesterol efflux and Reverse Cholesterol Transport (RCT) in vivo. [^3H]cholesterol-labeled macrophage foam-cells (i.e., loaded with acetylated LDL) were injected into the intraperitoneal (IP) cavity of Apo E −/− mice in the presence and absence of the polypeptide of SEQ ID NO:4 (20 mg/kg). The polypeptide stimulated cholesterol efflux in vivo, as judged by a pronounced (2-fold) increase in the levels of macrophage derived [^3H]cholesterol appearing in plasma at 8 and 24 hour post-injection, compared to saline vehicle alone (see, FIG. 20). This was accompanied by a greater than 2-fold increase in fecal sterol secretion at 8 and 24 h. In general, the effects of the peptide were relatively long-lived persisting up to 48 h.

J774 macrophages = assay: Pretreatment of macrophages, then Apo A-I-mediated cholesterol efflux; format: cell-based, mouse; details: 4 hour pretreatment, vs serum-free medium alone; Apo A-I 10 μg/ml
Protocol: To determine whether conditioning of macrophages with the polypeptide of SEQ ID NO:4 upregulates cholesterol efflux to native apolipoproteins, J774 macrophages labeled with [^3H]cholesterol were induced for the ABCA1 response using a cAMP analog (24 h). This was followed by a 4 hour treatment (no cAMP) with serum-free medium alone or medium containing the polypeptide of SEQ ID NO:4. After 4 h with no cAMP, cholesterol efflux was initiated by adding fresh medium containing Apo A-I (10 μg/ml). Polypeptide of SEQ ID NO:4 pretreatment produced a 40% increase in Apo A-I-mediated cholesterol efflux from macrophages, compared to pretreatment with serum-free medium alone (see, FIG. 6).

Chain of ABCA1 (Mus musculus, UniProt P41233) (P41233 whole entry): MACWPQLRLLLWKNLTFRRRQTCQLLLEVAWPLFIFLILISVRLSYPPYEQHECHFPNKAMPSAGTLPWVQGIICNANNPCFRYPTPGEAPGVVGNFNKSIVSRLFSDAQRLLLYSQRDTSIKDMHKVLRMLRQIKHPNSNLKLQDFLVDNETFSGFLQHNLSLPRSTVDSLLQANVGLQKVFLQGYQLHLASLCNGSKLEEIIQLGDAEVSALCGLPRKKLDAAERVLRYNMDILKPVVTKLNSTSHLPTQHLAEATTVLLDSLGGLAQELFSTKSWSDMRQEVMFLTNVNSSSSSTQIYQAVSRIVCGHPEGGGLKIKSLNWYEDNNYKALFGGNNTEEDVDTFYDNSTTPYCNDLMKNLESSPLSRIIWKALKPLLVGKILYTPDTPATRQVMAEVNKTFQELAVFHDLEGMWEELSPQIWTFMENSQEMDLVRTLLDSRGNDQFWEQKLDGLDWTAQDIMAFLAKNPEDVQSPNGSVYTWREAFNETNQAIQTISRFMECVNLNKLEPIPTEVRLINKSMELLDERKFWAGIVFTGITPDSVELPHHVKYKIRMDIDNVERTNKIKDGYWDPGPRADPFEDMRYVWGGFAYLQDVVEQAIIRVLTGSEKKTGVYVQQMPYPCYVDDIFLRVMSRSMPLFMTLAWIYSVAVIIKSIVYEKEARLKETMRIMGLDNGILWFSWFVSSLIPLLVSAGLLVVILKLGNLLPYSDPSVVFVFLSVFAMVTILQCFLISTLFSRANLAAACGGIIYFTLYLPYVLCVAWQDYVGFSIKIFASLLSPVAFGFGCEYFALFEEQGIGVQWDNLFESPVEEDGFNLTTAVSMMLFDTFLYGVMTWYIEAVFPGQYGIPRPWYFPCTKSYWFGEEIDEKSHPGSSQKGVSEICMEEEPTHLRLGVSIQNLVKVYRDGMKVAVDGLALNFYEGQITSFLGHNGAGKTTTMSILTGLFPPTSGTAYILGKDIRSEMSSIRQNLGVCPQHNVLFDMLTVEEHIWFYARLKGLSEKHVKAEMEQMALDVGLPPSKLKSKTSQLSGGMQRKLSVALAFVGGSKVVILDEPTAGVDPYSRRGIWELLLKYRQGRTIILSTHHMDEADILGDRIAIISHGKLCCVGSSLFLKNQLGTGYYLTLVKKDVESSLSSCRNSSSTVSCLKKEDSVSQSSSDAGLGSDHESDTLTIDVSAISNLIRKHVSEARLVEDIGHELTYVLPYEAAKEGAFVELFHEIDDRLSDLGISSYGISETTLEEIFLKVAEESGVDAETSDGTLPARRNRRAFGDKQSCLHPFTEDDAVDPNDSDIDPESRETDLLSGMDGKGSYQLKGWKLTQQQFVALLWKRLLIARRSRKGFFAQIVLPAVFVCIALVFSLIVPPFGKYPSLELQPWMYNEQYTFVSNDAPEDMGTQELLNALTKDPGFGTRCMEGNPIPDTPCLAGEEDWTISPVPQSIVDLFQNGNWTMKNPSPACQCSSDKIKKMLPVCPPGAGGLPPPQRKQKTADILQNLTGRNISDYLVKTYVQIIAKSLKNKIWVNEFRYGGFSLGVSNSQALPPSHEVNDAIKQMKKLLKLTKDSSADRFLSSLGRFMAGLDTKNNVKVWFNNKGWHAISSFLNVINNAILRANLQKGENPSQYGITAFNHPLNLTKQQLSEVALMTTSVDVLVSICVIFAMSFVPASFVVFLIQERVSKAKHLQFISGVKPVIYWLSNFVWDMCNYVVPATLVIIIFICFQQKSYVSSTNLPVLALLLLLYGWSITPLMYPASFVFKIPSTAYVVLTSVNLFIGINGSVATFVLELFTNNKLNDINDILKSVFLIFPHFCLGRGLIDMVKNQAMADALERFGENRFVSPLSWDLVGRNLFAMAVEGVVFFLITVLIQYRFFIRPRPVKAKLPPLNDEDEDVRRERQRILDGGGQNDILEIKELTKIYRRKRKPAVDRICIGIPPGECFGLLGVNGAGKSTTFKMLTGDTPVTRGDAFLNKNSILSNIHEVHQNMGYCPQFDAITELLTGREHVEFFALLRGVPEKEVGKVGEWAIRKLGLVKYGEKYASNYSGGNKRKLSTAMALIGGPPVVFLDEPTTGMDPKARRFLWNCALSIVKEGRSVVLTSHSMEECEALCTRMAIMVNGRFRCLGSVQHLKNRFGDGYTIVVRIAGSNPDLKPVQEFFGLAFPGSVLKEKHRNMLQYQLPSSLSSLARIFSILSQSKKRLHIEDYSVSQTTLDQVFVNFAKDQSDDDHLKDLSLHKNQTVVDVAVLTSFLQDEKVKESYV

## EVRSKLEEWFAAFREFAEEFLARLKS (ATI-5261 amphipathic alpha-helix polypeptide core sequence selectively binds HDL, high-affinity ligand for ATP-binding cassette transporter A1 (ABCA1), ABCA1-lipid cholesterol efflux, ABCA1-stablization, anti-oxidant and anti- inflammatory activity) [SEQ ID NO:4]
ABCA1 [1]
  ABCA1 protein in cell lysates after cAMP withdrawal: prevented the disappearance of ABCA1 protein
Interleukin-6; mouse, in vivo
  serum IL-6 versus saline (in words): lowered levels of the inflammatory cytokine IL-6
Interleukin-6; once daily IP, vs saline, after 18 weeks Western diet
  lower serum levels of IL-6: about 68%
ABCA1 [2]
  non-specific efflux activity in the absence of ABCA1: minimal
ABCA1 [2]; mouse macrophages and ABCA1-transfected HeLa
  requirement of ABCA1 for cholesterol efflux activity: required ABCA1 for efflux activity
LDLr knockout mice
  plaque lesions in the whole aorta: reduced plaque lesion area over the whole aorta; also recorded: the amount of plaque was reduced
[3]; 6 weeks
  effect on established atherosclerosis (in words): reduced aortic plaque lipid content; also recorded: significantly reduced established atherosclerosis
[3]; last 6 weeks of 26 weeks high-fat diet, lipid-content of aortic sinus plaques
  greater atherosclerosis in saline control mice compared to treated mice: 38%
[4]
  persistence of effects: up to 48 h
[4]; 8 and 24 h
  increase in fecal sterol secretion: greater than 2 fold
[4]; 8 and 24 hour post-injection, vs saline
  increase in macrophage derived [3H]cholesterol in plasma: 2 fold
J774 macrophages
  increase in Apo A-I-mediated cholesterol efflux after pretreatment: 40%
